Patent publication US11034671B2, “Apoptosis signal-regulating kinase inhibitors and uses thereof” (SICHUAN HAISCO PHARMACEUTICAL CO., LTD., priority 2017, dated 2021)

Molecular target: ASK1 (Homo sapiens (Human), UniProt Q99683)
Assay: ASK1 KINOMEscan assay (biochemical Kd), competition binding
Settings: DNA-tagged ASK1 kinase, 11-point 3-fold dilution
Procedure: The binding of compounds to ASK1 were determined using DiscoverX's proprietary technology. […] The assay is performed by combining three components: DNA-tagged ASK1 kinase; immobilized ligand; and a test compound. The ability of the test compound to compete with the immobilized ligand is measured via quantitative PCR of the DNA tag. […] The liganded beads were blocked with excess biotin and washed with blocking buffer (SeaBlock (Pierce), 1% BSA, 0.05% Tween 20, 1 mM DTT) to remove unbound ligand and to reduce nonspecific binding. […] Kds were determined using an 11-point 3-fold compound dilution series with three DMSO control points. […] The compounds were then diluted directly into the assays such that the final concentration of DMSO was 0.9%. All reactions were performed in polypropylene 384-well plate. […] The kinase concentration in the eluates was measured by qPCR. Most Kds were determined using a compound top concentration=30,000 nM. […] Binding constants (Kds) were calculated with a standard dose-response curve using the Hill equation: Response=Background+{(Signal−Background)/[1+(Kd^Hill Slope/Dose^Hill Slope)]}, the Hill Slope was set to −1, and curves were fitted using a non-linear least square fit with the Levenberg-Marquardt algorithm.

Sequence of ASK1 (Q99683 whole entry): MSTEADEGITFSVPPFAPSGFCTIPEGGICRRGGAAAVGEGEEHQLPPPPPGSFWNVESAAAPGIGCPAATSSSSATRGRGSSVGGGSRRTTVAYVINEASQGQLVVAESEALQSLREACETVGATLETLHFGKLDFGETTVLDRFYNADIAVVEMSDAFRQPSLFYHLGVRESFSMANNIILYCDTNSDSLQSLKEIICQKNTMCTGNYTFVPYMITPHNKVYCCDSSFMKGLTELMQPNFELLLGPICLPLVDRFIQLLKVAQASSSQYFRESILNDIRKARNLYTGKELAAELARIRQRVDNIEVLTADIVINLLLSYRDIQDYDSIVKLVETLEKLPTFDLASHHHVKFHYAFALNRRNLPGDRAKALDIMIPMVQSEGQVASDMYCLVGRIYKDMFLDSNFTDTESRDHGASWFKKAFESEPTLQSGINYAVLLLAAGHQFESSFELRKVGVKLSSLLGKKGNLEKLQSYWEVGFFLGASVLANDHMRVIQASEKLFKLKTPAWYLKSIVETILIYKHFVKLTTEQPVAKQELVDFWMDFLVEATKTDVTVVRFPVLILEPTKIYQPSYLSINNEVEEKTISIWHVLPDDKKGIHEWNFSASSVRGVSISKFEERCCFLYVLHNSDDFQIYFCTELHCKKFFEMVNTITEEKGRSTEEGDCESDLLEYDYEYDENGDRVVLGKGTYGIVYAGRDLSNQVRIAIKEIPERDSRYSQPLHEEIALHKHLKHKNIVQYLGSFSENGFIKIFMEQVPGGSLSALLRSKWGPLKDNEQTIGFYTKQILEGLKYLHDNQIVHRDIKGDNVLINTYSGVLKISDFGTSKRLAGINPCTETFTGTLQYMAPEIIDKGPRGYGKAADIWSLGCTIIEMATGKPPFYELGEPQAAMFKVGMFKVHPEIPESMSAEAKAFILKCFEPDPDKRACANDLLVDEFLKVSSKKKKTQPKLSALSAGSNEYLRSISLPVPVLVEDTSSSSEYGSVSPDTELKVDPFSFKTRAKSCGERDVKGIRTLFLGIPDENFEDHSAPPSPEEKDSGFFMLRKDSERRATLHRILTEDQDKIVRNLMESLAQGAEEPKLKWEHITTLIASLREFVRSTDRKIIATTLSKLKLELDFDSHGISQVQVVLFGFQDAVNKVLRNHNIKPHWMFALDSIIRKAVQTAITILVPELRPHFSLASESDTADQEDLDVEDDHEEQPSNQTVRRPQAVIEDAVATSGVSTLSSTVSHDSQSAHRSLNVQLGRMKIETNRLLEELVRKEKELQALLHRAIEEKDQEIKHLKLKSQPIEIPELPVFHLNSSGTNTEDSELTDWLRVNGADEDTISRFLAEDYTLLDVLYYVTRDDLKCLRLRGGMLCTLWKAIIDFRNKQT

Row | Kd | Structure (SMILES)
1 | < 10 nM | Cc1ccc(-c2ccc3c(c2)C(=O)Nc2cccc(n2)-c2nncn2C2C[C@H]2CCO3)cn1 (stereo in doubt) [Example 97]
2 | < 10 nM | COc1ccc2c(c1)C(=O)Nc1cccc(n1)-c1nncn1CC/C=C/CO2 [Example 1]
3 | < 10 nM | COc1ccc2c(c1)C(=O)Nc1cccc(n1)-c1nncn1CCCCCO2 [Example 2]
4 | 10 to 100 nM | COc1ccc2c(c1)C(=O)Nc1cccc(n1)-c1nncn1CCC/C=C/CO2 [Example 3]
5 | > 1000 nM | COc1ccc2c(c1)C(=O)Nc1cccc(n1)-c1nncn1CC/C=C/C2 [Example 4]
6 | 100 to 1000 nM | COc1ccc2c(c1)C(=O)Nc1cccc(n1)-c1nncn1CCCCC2 [Example 5]
7 | 10 to 100 nM | COc1ccc2c(c1)C(=O)Nc1cccc(n1)-c1nncn1CC=CCO2 [Example 6]
8 | < 10 nM | COc1ccc2c(c1)C(=O)Nc1cccc(n1)-c1nncn1CCCCO2 [Example 7]
9 | 10 to 100 nM | O=C1Nc2cccc(n2)-c2nncn2CCCCCc2ccc(-c3ccc(C4CC4)nc3)cc21 [Example 8]
10 | 100 to 1000 nM | O=C1Nc2cccc(n2)-c2nncn2CCCCCCOc2ccc(-c3ccc(C4CC4)nc3)cc21 [Example 9]
11 | < 10 nM | O=C1Nc2cccc(n2)-c2nncn2CC=CCCOc2ccc(Br)cc21 [Example 10]
12 | < 10 nM | COc1ccc2c(c1)C(=O)Nc1cccc(n1)-c1nncn1CCCCCCO2 [Example 11]
13 | 10 to 100 nM | O=C1Nc2cccc(n2)-c2nncn2CC=CCCCOc2ccc(Br)cc21 [Example 12]
14 | > 1000 nM | O=C1Nc2cccc(n2)-c2nncn2CC=CCCCOc2ccc(-c3ccc(C4CC4)nc3)cc21 [Example 13]
15 | 10 to 100 nM | O=C1Nc2cccc(n2)-c2nncn2CC=CCCOc2ccc(-c3ccc(C4CC4)nc3)cc21 [Example 14]
16 | 10 to 100 nM | O=C1Nc2cccc(n2)-c2nncn2C/C=C\COc2ccc(Br)cc21 [Example 16]
17 | 10 to 100 nM | O=C1Nc2cccc(n2)-c2nncn2C/C=C/CCOc2ccc(OCc3ccccc3)cc21 [Example 17]
18 | < 10 nM | O=C1Nc2cccc(n2)-c2nncn2C/C=C/COc2ccc(OCc3ccccc3)cc21 [Example 18]
19 | 10 to 100 nM | O=C1Nc2cccc(n2)-c2nncn2CCCCOc2ccc(OC3CCOC3)cc21 (stereo not shown) [Example 20]
20 | > 1000 nM | O=C1Nc2cccc(c2)-c2nncn2CCCOc2ccc(-c3ccc(C4CC4)nc3)cc21 [Example 21]
21 | 100 to 1000 nM | O=C1Nc2cccc(n2)-c2nncn2CCCCOc2cc(F)c(F)cc21 [Example 25]
22 | 100 to 1000 nM | O=C1Nc2cccc(n2)-c2nncn2CCCCOc2cc(F)c(Br)cc21 [Example 28]
23 | 100 to 1000 nM | COc1cc2c(cc1OC)C(=O)Nc1cccc(n1)-c1nncn1CCCCO2 [Example 29]
24 | < 10 nM | N#Cc1ccc2c(c1)C(=O)Nc1cccc(n1)-c1nncn1CCCCO2 [Example 31]

Row | Kd | Structure (SMILES)
25 | 10 to 100 nM | O=C1Nc2cccc(n2)-c2nncn2CCCCOc2ccc(C(F)(F)F)cc21 [Example 32]
26 | 100 to 1000 nM | O=C1Nc2cccc(n2)-c2nncn2CCCOc2ccc(Br)cc21 [Example 33]
27 | 10 to 100 nM | O=C1Nc2cccc(n2)-c2nncn2CCCCOc2ccc(Cl)cc21 [Example 41]
28 | 10 to 100 nM | N#Cc1cc2c(cc1F)OCCCCn1cnnc1-c1cccc(n1)NC2=O [Example 44]
29 | 100 to 1000 nM | CC(C)n1nccc1-c1ccc2c(c1)C(=O)Nc1cccc(n1)-c1nncn1CCCCO2 [Example 45]
30 | < 10 nM | Cc1ccc(-c2cc3c(cc2C)OCCCCn2cnnc2-c2cccc(n2)NC3=O)cn1 [Example 51]
31 | < 10 nM | CC(C)(O)c1ccc2c(c1)OCCCCn1cnnc1-c1cccc(n1)NC2=O [Example 53]
32 | < 10 nM | Cn1ncc2cc(-c3ccc4c(c3)C(=O)Nc3cccc(n3)-c3nncn3CCCCO4)ccc21 [Example 55]
33 | 10 to 100 nM | O=C1Nc2cccc(n2)-c2nncn2CCCOc2ccc(-c3ccccc3)cc21 [Example 57]
34 | < 10 nM | O=C1Nc2cccc(n2)-c2nncn2CCCCOc2ccc(-c3ccc4nccn4c3)cc21 [Example 58]
35 | 100 to 1000 nM | COc1cc2c(cc1Br)OCCCCn1cnnc1-c1cccc(n1)NC2=O [Example 59]
36 | < 10 nM | Cc1ccc(-c2ccc3c(c2)C(=O)Nc2cccc(n2)-c2nncn2CCCO3)cn1 [Example 60]
37 | 100 to 1000 nM | Cc1ccc(-c2cc3c(cc2F)OCCCCn2cnnc2-c2cccc(n2)NC3=O)cn1 [Example 64]
38 | < 10 nM | Cc1cc2c(cc1-c1ccc(C3CC3)nc1)C(=O)Nc1cccc(n1)-c1nncn1CCCCO2 [Example 65]
39 | < 10 nM | O=C1Nc2cccc(n2)-c2nncn2CCCCOc2cc(F)c(-c3ccc(C4CC4)nc3)cc21 [Example 68]
40 | < 10 nM | Cc1ccc(-c2ccc3c(c2)C(=O)Nc2cccc(n2)-c2nncn2[C@H]2C[C@@H](CO3)C2)cn1 [Example 69]
41 | < 10 nM | Cc1ccc(-c2ccc3c(c2)C(=O)Nc2cccc(n2)-c2nncn2[C@H]2CC[C@H](CC2)O3)cn1 [Example 71]
42 | > 1000 nM | Cc1ccc(-c2ccc3c(c2)C(=O)Nc2cccc(n2)-c2nncn2CCO3)cn1 [Example 72]
43 | < 10 nM | Cc1ncc(-c2ccc3c(c2)C(=O)Nc2cccc(n2)-c2nncn2CCCCO3)cn1 [Example 73]
44 | 10 to 100 nM | Cc1ncc(-c2ccc3c(c2)C(=O)Nc2cccc(n2)-c2nncn2CCCCO3)cc1Cl [Example 75]
45 | < 10 nM | Cc1ccc(-c2ccc3c(c2)C(=O)Nc2cccc(n2)-c2nncn2C[C@H]2CC2CO3)cn1 (stereo partly shown) [Example 77]
46 | < 10 nM | CC(F)(F)c1ccc(-c2ccc3c(c2)C(=O)Nc2cccc(n2)-c2nncn2CCCCO3)cn1 [Example 78]
47 | 10 to 100 nM | O=C1Nc2cccc(n2)-c2nncn2CCCOc2ccc(-c3ccc(C(F)F)nc3)cc21 [Example 79]
48 | < 10 nM | Cc1ccc(-c2ccc3c(c2)C(=O)Nc2cccc(n2)-c2nncn2CC(C)CCO3)cn1 (stereo not shown) [Example 80]

Row | Kd | Structure (SMILES)
49 | < 10 nM | Cc1ccc(-c2ccc3c(c2)C(=O)Nc2cccc(n2)-c2nncn2C[C@@H]2CC2CO3)cn1 (stereo partly shown) [Example 81]
50 | < 10 nM | O=C1Nc2cccc(n2)-c2nncn2CCCOCc2ccc(-c3ccc(C(F)F)nc3)cc21 [Example 82]
51 | > 1000 nM | CC1CCOc2ccc(-c3ccc(C(F)F)nc3)cc2C(=O)Nc2cccc(n2)-c2nncn21 (stereo not shown) [Example 83]
52 | < 10 nM | O=C1Nc2cccc(n2)-c2nncn2[C@H]2CC[C@H](CC2)Oc2ccc(-c3ccc(C(F)F)nc3)cc21 [Example 84]
53 | < 10 nM | O=C1Nc2cccc(n2)-c2nncn2[C@H]2CCC(C2)Oc2ccc(-c3ccc(C(F)F)nc3)cc21 [Example 86]
54 | < 10 nM | O=C1Nc2cccc(n2)-c2nncn2CCCCOc2ccc(-c3ccc(CF)nc3)cc21 [Example 87]
55 | < 10 nM | Cc1ccc(-c2ccc3c(c2)C(=O)Nc2cccc(n2)-c2nncn2[C@@H](C)CCCO3)cn1 [Example 88]
56 | < 10 nM | Cc1ccc(-c2ccc3c(c2)C(=O)Nc2cccc(n2)-c2nncn2[C@H](C)CCCO3)cn1 [Example 89]
57 | > 1000 nM | O=C1Nc2cccc(n2)-c2nncn2CCCOc2ccc(-c3ccc(C(F)F)nc3)cc21 [Example 90]
58 | > 1000 nM | Cc1ccc(-c2ccc3c(c2)C(=O)Nc2cccc(n2)-c2nncn2CCCS3)cn1 [Example 91]
59 | 100 to 1000 nM | O=C1Nc2cccc(n2)-c2nncn2C2CC(C2)Oc2ccc(-c3ccc(C(F)F)nc3)cc21 [Example 93]
60 | > 1000 nM | COc1ccc2c(c1)C(=O)Nc1cccc(n1)-c1nncn1CC=CC2 [Example 94]
61 | < 10 nM | O=C1Nc2cccc(n2)-c2nncn2CCCOCc2ccc(-c3ccc(C4CC4)nc3)cc21 [Example 95]
62 | 10 to 100 nM | N#Cc1ccc2c(c1)OCCCCn1cnnc1-c1cccc(n1)NC2=O [Example 96]
63 | < 10 nM | O=C1Nc2cccc(n2)-c2nncn2CCCOCc2ccc(-c3ccc(CF)nc3)cc21 [Example 100]
64 | 10 to 100 nM | O=C1Nc2cccc(n2)-c2nncn2CCCOCc2ccc(-c3ccc(C(F)(F)F)nc3)cc21 [Example 101]
65 | < 10 nM | CCc1ccc(-c2ccc3c(c2)C(=O)Nc2cccc(n2)-c2nncn2CCCOC3)cn1 [Example 102]
66 | < 10 nM | O=C1Nc2cccc(n2)-c2nncn2CCCOCc2ccc(-n3cnc(C4CC4)c3)cc21 [Example 103]
67 | < 10 nM | Cc1ccc(-c2ccc3c(c2)C(=O)Nc2cccc(n2)-c2nncn2CC[C@@H](C)CO3)cn1 [Example 104]
68 | 10 to 100 nM | O=C1Nc2cccc(n2)-c2nncn2CCCOCc2ccc(-c3cnc(F)c(Cl)c3)cc21 [Example 106]
69 | 10 to 100 nM | O=C1Nc2cccc(n2)-c2nncn2CCCOCc2ccc(-c3cnc(F)c(F)c3)cc21 [Example 107]
70 | 100 to 1000 nM | Cc1c(F)c(F)cc2c1C(=O)Nc1cccc(n1)-c1nncn1CCCCO2 [compound 26]
71 | < 10 nM | CCc1ccc(-c2ccc3c(c2)C(=O)Nc2cccc(n2)-c2nncn2CCCS3)cn1 [compound 92]

Row | Structure (SMILES) | Kd
72 | O=C1Nc2cccc(n2)-c2nncn2CCCCOc2ccc(-c3cnc(F)c(F)c3)cc21 [Example 98] | < 10 nM
73 | O=C1Nc2cccc(n2)-c2nncn2CCCCOc2ccc(-c3cnc(F)c(Cl)c3)cc21 [Example 99] | < 10 nM
